Values quoted from earlier work in PubChem BioAssay AID1259409 (Chemical Carcinogenesis Research Information System (CCRIS), 2018).

Tested on: rodent chemically induced tumor inhibition, incidence and multiplicity
Assay: CCRIS tumor inhibitor studies

Structure (SMILES): CC(C)(C)c1cc(Cc2cc(C(C)(C)C)c(O)c(C(C)(C)C)c2)cc(C(C)(C)C)c1O
- tumour outcome (control, treated, inhibition, significance) (Carcinogen: BENZO[A]PYRENE, 50-32-8, Dose [Inhibitor]: 0.03 MMOL/G OF DIET DAILY STARTING 7 D BEFORE AND CONTINUING THROUGH 3 D AFTER CARCINOGEN TREATMENT FOLLOWED BY OBSERVAT, Route [Inhibitor]: ORAL, Species: MOUSE, Strain/Sex: ICR/FEMALE, Target Tissue: Type of Lesion: FORESTOMACH: NEOPLASM, Dose [Carcinogen]: 1 MG IN 0.2 ML CORN OIL 2/WK FOR 4 WK, Promoter: NONE USED): 94%, 100%, -6%, not significant

Structure (SMILES): C=CC/C(=N/OS(=O)(=O)O)S[C@@H]1O[C@H](CO)[C@@H](O)[C@H](O)[C@H]1O
- tumour outcome (control, treated, inhibition, significance) (Carcinogen: 4-NITROQUINOLINE-1-OXIDE, 56-57-5, Dose [Inhibitor]: 0, 1200 PPM IN DIET BEGINNING 1 WK POST CARCINOGEN TREATMENT AND CONTINUING FOR 23 WK (STUDY DURATION: 37 WK), Route [Inhibitor]: ORAL, Species: RAT, Strain/Sex: ACI/N/MALE, Target Tissue: Type of Lesion: TONGUE: CARCINOMA, Dose [Carcinogen]: 10 PPM IN DRINKING WATER FOR 12 WK, Promoter: NONE USED): 12/17 (71%), 0/15 (0%), 100%, p 0.0003
- tumour outcome (control, treated, inhibition, significance) (Carcinogen: 4-NITROQUINOLINE-1-OXIDE, 56-57-5, Dose [Inhibitor]: 0, 1200 PPM IN DIET BEGINNING 1 WK POST CARCINOGEN TREATMENT AND CONTINUING FOR 23 WK (STUDY DURATION: 37 WK), Route [Inhibitor]: ORAL, Species: RAT, Strain/Sex: ACI/N/MALE, Target Tissue: Type of Lesion: TONGUE: PAPILLOMA, Dose [Carcinogen]: 10 PPM IN DRINKING WATER FOR 12 WK, Promoter: NONE USED): 5/17 (29%), 2/15 (13%), 55%, not calculated
- tumour outcome (control, treated, inhibition, significance) (Carcinogen: 4-NITROQUINOLINE-1-OXIDE, 56-57-5, Dose [Inhibitor]: 0, 1200 PPM IN DIET BEGINNING 1 WK PRIOR TO CARCINOGEN TREATMENT AND CONTINUING FOR 1 WK POST CARCINOGEN TREATMENT (STUD, Route [Inhibitor]: ORAL, Species: RAT, Strain/Sex: ACI/N/MALE, Target Tissue: Type of Lesion: TONGUE: CARCINOMA, Dose [Carcinogen]: 10 PPM IN DRINKING WATER FOR 12 WK, Promoter: NONE USED): 12/17 (71%), 0/15 (0%), 100%, p 0.00003
- tumour outcome (control, treated, inhibition, significance) (Carcinogen: 4-NITROQUINOLINE-1-OXIDE, 56-57-5, Dose [Inhibitor]: 0, 1200 PPM IN DIET BEGINNING 1 WK PRIOR TO CARCINOGEN TREATMENT AND CONTINUING FOR 1 WK POST CARCINOGEN TREATMENT (STUD, Route [Inhibitor]: ORAL, Species: RAT, Strain/Sex: ACI/N/MALE, Target Tissue: Type of Lesion: TONGUE: PAPILLOMA, Dose [Carcinogen]: 10 PPM IN DRINKING WATER FOR 12 WK, Promoter: NONE USED): 5/17 (29%), 1/15 (7%), 76%, not calculated
- tumour outcome (control, treated, inhibition, significance) (Carcinogen: DIETHYLNITROSAMINE, 55-18-5, Dose [Inhibitor]: 0, 1200 PPM IN DIET BEGINNING 1 WK PRIOR TO FIRST CARCINOGEN DOSE AND CONTINUING TO 1 WK POST LAST CARCINOGEN DOSE (STUD, Route [Inhibitor]: ORAL, Species: RAT, Strain/Sex: ACI/N/MALE, Target Tissue: Type of Lesion: LIVER: ADENOMA, Dose [Carcinogen]: 40 PPM IN DRINKING WATER FOR 5 WK, Promoter: NONE USED): 10/10 (100%), 2/12 (17%), 83%, p<0.0002
- tumour outcome (control, treated, inhibition, significance) (Carcinogen: DIETHYLNITROSAMINE, 55-18-5, Dose [Inhibitor]: 0, 1200 PPM IN DIET BEGINNING 1 WK PRIOR TO FIRST CARCINOGEN DOSE AND CONTINUING TO 1 WK POST LAST CARCINOGEN DOSE (STUD, Route [Inhibitor]: ORAL, Species: RAT, Strain/Sex: ACI/N/MALE, Target Tissue: Type of Lesion: LIVER: CARCINOMA, Dose [Carcinogen]: 40 PPM IN DRINKING WATER FOR 5 WK, Promoter: NONE USED): 10/10 (100%), 4/12 (33%), 67%, p<0.002

Structure (SMILES): C=C/C(C)=C/C=C/C(C)=C/C=C1/C(C)=CCCC1(C)C
- tumour outcome (control, treated, inhibition, significance) (Carcinogen: N-METHYL-N-NITROSOUREA, 684-93-5, Dose [Inhibitor]: 0, 67 MG/KG DIET FOR FOR 88 D BEGINNING 2 D POST CARCINOGEN DOSE (STUDY DURATION: 90 D), Route [Inhibitor]: ORAL, Species: RAT, Strain/Sex: SPRAGUE-DAWLEY/FEMALE, Target Tissue: Type of Lesion: MAMMARY GLAND: ADENOCARCINOMA, Dose [Carcinogen]: 45 MG/KG BW ONCE, Promoter: NONE USED): 100%, 93%, 7%, not significant
- tumour outcome (control, treated, inhibition, significance) (Carcinogen: N-METHYL-N-NITROSOUREA, 684-93-5, Dose [Inhibitor]: 0, 134 MG/KG DIET FOR 88 D BEGINNING 2 D POST CARCINOGEN DOSE (STUDY DURATION: 90 D), Route [Inhibitor]: ORAL, Species: RAT, Strain/Sex: SPRAGUE-DAWLEY/FEMALE, Target Tissue: Type of Lesion: MAMMARY GLAND: ADENOCARCINOMA, Dose [Carcinogen]: 45 MG/KG BW ONCE, Promoter: NONE USED): 100%, 100%, 0%, not significant
- tumour outcome (control, treated, inhibition, significance) (Carcinogen: N-METHYL-N-NITROSOUREA, 684-93-5, Dose [Inhibitor]: 0, 268 MG/KG DIET FOR 88 D BEGINNING 2 D POST CARCINOGEN DOSE (STUDY DURATION: 90 D), Route [Inhibitor]: ORAL, Species: RAT, Strain/Sex: SPRAGUE-DAWLEY/FEMALE, Target Tissue: Type of Lesion: MAMMARY GLAND: ADENOCARCINOMA, Dose [Carcinogen]: 45 MG/KG BW ONCE, Promoter: NONE USED): 100%, 87%, 13%, p<0.05
- tumour outcome (control, treated, inhibition, significance) (Carcinogen: N-METHYL-N-NITROSOUREA, 684-93-5, Dose [Inhibitor]: 0, 536 MG/KG DIET FOR 88 D BEGINNING 2 D POST CARCINOGEN DOSE (STUDY DURATION: 90 D), Route [Inhibitor]: ORAL, Species: RAT, Strain/Sex: SPRAGUE-DAWLEY/FEMALE, Target Tissue: Type of Lesion: MAMMARY GLAND: ADENOCARCINOMA, Dose [Carcinogen]: 45 MG/KG BW ONCE, Promoter: NONE USED): 100%, 80%, 20%, p<0.05

Structure (SMILES): CCCCCN(CCCCC)C(=O)C(CCC(=O)O)NC(=O)c1ccc(Cl)c(Cl)c1 (configuration not stated)
- tumour outcome (control, treated, inhibition, significance) (Carcinogen: 7,12-DIMETHYLBENZ[A]ANTHRACENE, 57-97-6, Dose [Inhibitor]: 0, 12 MG/KG 2/D FOR 15 D POST CARCINOGEN TREATMENT (STUDY DURATION: 6 MO), Route [Inhibitor]: SUBCUTANEOUS, Species: RAT, Strain/Sex: SPRAGUE-DAWLEY/MALE, Target Tissue: Type of Lesion: PANCREAS: CARCINOMA, Dose [Carcinogen]: 2-3 MG ONCE, Promoter: CAERULEIN, 17650-98-5): 11/15 (73%), 7/15 (47%), 36%, p<0.02
- tumour outcome (control, treated, inhibition, significance) (Carcinogen: AZASERINE, 115-02-6, Dose [Inhibitor]: 0, 12 MG/KG BW 1/D 3 D/WK FOR 8 MO BEGINNING 4 MO POST FIRST CARCINOGEN DOSE (STUDY DURATION: 8 MO), Route [Inhibitor]: SUBCUTANEOUS, Species: RAT, Strain/Sex: WISTAR/MALE, Target Tissue: Type of Lesion: PANCREAS: TUMOR, Dose [Carcinogen]: 30 MG/KG ON DAYS 19, 26, AND 54 OF AGE, Promoter: CHOLECYSTOKININ, 9011-97-6): 19/34 (56%), 15/35 (43%), 23%, not significant
- tumour outcome (control, treated, inhibition, significance) (Carcinogen: AZASERINE, 115-02-6, Dose [Inhibitor]: 0, 12 MG/KG BW 1/D 30 MIN PRIOR TO PROMOTER DOSE 3 D/WK FOR 8 MO BEGINNING 4 MO POST FIRST CARCINOGEN DOSE (STUDY DURATI, Route [Inhibitor]: SUBCUTANEOUS, Species: RAT, Strain/Sex: WISTAR/MALE, Target Tissue: Type of Lesion: PANCREAS: TUMOR, Dose [Carcinogen]: 30 MG/KG ON DAYS 19, 26, AND 54 OF AGE, Promoter: BOMBESIN, 31362-50-2): 28/37 (76%), 18/32 (56%), 26%, not significant

Structure (SMILES): CCOC(=O)Oc1ccc(/C=C/C=C/C(=O)NCCN2CCC(OC(c3ccccc3)c3ccccc3)CC2)cc1OC
- tumour outcome (control, treated, inhibition, significance) (Carcinogen: 7,12-DIMETHYLBENZ[A]ANTHRACENE, 57-97-6, Dose [Inhibitor]: 0, 30 MG/KG IN 5% TWEEN 80 ADMINISTERED 30 MIN PRIOR TO EACH PROMOTER DOSE 2/WK FOR 22 WK (STUDY DURATION: 25 WK), Route [Inhibitor]: ORAL, Species: MOUSE, Strain/Sex: CD-1/FEMALE, Target Tissue: Type of Lesion: SKIN: TUMOR, Dose [Carcinogen]: 200 NMOL ONCE, Promoter: 12-O-TETRADECANOYL-13-ACETATE, 16561-29-8): 100%, 55%, 45%, p<0.05
- tumour outcome (control, treated, inhibition, significance) (Carcinogen: 7,12-DIMETHYLBENZ[A]ANTHRACENE, 57-97-6, Dose [Inhibitor]: 0, 30 MG/KG IN 5% TWEEN 80 ADMINISTERED 30 MIN PRIOR TO EACH PROMOTER DOSE 2/WK FOR 22 WK (STUDY DURATION: 25 WK), Route [Inhibitor]: ORAL, Species: MOUSE, Strain/Sex: CD-1/FEMALE, Target Tissue: Type of Lesion: SKIN: TUMOR, Dose [Carcinogen]: 200 NMOL ONCE, Promoter: ANTHRALIN, 1143-38-0): 92%, 35%, 62%, p<0.05
- tumour outcome (control, treated, inhibition, significance) (Carcinogen: BENZO[A]PYRENE, 50-32-8, Dose [Inhibitor]: 0, 30 MG/KG IN 5% TWEEN 80 1/WK FOR 22 WK ADMINISTERED 30 MIN PRIOR TO EACH CARCINOGEN DOSE (STUDY DURATION: 22 WK), Route [Inhibitor]: ORAL, Species: MOUSE, Strain/Sex: CD-1/FEMALE, Target Tissue: Type of Lesion: SKIN: TUMOR, Dose [Carcinogen]: 200 NMOL 1/WK FOR 22 WK, Promoter: NONE USED): 100%, 50%, 50%, p<0.05
